Results reported in patent US11981658B2, “Substituted aminopyridine compounds as EGFR inhibitors” (YUHAN CORPORATION, priority 2021, dated 2024).
Where a name gives a salt, the structure may show the parent alone. Read-outs that look alike come from different tables or passages of the source.

Key:
[1] = target: EGFR L858R/T790M/C797S (Homo sapiens, UniProt P00533, C797S/L858R/T790M); assay: Biochemical EGFR kinase inhibition assay (Lance Ultra TR-FRET), triple mutant L858R/T790M/C797S
Summary of the method: (§1)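 In this biochemical assay, phosphorylation after a one-hour room-temperature reaction was detected with europium-labelled anti-phosphopeptide antibody at 2 nM final concentration.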

[2] = target: EGFR Del19/T790M/C797S (Homo sapiens, UniProt P00533, C797S/DEL746-750/T790M); assay: Biochemical EGFR kinase inhibition assay (Lance Ultra TR-FRET), triple mutant del19/T790M/C797S
Summary of the method: as §1

[3] = target: EGFR L858R/C797S (Homo sapiens, UniProt P00533, C797S/L858R); assay: Biochemical EGFR kinase inhibition assay (Lance Ultra TR-FRET), double mutant L858R/C797S
Summary of the method: as §1

[4] = target: EGFR Del19/C797S (Homo sapiens, UniProt P00533, C797S/DEL746-750); assay: Biochemical EGFR kinase inhibition assay (Lance Ultra TR-FRET), double mutant del19/C797S
Summary of the method: as §1

[5] = target: EGFR wildtype (WT) (Homo sapiens, UniProt P00533); assay: Biochemical EGFR kinase inhibition assay (Lance Ultra TR-FRET), wildtype
Summary of the method: as §1

[6] = ATP at Km, read-out: IC50 L858R/T790M/C797S (nM), Km ATP
[7] = IC50 L858R/T790M/C797S (nM), 100 μM ATP
[8] = ATP at Km, read-out: IC50 Del19/T790M/C797S (nM), Km ATP
[9] = IC50 Del19/T790M/C797S (nM), 100 μM ATP
[10] = ATP at Km, read-out: IC50 L858R/C797S (nM), Km ATP
[11] = IC50 L858R/C797S (nM), 100 μM ATP
[12] = ATP at Km, read-out: IC50 Del19/C797S (nM), Km ATP
[13] = IC50 Del19/C797S (nM), 100 μM ATP
[14] = ATP at Km, read-out: IC50 WT (nM), Km ATP

EGFR L858R/T790M/C797S, sequence (P00533 25-1210 T790M/C797S/L858R): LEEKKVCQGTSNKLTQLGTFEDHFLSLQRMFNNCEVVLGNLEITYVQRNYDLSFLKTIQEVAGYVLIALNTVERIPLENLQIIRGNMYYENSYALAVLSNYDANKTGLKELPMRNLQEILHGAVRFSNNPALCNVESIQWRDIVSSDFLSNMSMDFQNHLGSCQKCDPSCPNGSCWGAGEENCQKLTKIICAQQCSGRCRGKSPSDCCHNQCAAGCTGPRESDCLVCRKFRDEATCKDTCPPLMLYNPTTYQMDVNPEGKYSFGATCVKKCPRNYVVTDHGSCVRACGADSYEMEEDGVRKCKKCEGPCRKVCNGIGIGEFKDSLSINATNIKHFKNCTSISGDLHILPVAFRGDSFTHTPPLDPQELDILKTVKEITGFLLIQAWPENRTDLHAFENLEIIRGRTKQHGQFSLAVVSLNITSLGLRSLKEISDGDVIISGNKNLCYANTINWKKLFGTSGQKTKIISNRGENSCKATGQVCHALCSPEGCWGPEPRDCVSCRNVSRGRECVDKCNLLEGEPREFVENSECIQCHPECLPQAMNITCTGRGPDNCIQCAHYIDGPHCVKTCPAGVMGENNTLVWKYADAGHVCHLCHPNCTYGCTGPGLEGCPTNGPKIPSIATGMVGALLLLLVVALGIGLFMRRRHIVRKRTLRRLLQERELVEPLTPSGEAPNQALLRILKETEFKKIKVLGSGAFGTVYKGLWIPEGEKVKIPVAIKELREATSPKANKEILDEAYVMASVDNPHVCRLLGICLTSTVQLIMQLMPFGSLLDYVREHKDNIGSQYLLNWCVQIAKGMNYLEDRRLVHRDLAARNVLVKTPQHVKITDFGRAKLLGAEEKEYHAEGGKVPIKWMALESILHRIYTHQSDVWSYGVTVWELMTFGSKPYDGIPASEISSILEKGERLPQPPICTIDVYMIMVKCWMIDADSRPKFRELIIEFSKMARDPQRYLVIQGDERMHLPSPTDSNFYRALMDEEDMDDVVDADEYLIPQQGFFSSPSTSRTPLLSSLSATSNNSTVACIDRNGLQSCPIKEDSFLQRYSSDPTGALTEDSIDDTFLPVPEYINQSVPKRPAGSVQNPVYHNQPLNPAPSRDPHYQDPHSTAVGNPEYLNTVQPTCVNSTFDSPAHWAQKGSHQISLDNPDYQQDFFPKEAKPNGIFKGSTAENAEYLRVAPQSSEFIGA
EGFR wildtype (WT), sequence (P00533 25-1210): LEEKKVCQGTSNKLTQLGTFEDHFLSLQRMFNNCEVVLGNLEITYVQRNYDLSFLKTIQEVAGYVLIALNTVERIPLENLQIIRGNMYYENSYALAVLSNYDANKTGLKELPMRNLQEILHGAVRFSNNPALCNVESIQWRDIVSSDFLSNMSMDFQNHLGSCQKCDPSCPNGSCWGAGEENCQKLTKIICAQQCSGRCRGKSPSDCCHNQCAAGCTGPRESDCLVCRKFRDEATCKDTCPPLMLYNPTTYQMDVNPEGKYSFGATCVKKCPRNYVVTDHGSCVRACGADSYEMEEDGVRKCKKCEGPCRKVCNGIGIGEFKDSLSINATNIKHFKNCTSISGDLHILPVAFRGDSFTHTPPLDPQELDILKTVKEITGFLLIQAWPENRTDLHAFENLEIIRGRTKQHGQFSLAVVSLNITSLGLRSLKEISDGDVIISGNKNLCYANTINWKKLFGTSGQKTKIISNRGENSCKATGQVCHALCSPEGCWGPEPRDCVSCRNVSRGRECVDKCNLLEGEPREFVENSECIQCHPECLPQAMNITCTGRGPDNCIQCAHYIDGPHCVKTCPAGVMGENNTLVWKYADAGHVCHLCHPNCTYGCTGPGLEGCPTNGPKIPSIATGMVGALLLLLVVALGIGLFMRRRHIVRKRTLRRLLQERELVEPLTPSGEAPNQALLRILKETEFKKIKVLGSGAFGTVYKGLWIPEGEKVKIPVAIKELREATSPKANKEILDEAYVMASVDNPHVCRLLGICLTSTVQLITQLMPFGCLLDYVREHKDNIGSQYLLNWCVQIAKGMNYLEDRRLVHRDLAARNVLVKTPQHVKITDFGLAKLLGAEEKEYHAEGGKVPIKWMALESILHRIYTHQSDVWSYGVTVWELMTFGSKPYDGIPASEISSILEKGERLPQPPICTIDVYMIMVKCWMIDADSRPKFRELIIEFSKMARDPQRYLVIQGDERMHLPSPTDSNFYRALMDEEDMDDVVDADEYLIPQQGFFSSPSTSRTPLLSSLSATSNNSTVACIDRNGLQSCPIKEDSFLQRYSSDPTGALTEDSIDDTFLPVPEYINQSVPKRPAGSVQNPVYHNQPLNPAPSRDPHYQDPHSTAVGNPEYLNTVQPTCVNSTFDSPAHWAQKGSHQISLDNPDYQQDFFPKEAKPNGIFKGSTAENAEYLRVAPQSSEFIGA
EGFR Del19/T790M/C797S, sequence (P00533 with tags, fused parts or gaps DEL746-750/T790M/C797S): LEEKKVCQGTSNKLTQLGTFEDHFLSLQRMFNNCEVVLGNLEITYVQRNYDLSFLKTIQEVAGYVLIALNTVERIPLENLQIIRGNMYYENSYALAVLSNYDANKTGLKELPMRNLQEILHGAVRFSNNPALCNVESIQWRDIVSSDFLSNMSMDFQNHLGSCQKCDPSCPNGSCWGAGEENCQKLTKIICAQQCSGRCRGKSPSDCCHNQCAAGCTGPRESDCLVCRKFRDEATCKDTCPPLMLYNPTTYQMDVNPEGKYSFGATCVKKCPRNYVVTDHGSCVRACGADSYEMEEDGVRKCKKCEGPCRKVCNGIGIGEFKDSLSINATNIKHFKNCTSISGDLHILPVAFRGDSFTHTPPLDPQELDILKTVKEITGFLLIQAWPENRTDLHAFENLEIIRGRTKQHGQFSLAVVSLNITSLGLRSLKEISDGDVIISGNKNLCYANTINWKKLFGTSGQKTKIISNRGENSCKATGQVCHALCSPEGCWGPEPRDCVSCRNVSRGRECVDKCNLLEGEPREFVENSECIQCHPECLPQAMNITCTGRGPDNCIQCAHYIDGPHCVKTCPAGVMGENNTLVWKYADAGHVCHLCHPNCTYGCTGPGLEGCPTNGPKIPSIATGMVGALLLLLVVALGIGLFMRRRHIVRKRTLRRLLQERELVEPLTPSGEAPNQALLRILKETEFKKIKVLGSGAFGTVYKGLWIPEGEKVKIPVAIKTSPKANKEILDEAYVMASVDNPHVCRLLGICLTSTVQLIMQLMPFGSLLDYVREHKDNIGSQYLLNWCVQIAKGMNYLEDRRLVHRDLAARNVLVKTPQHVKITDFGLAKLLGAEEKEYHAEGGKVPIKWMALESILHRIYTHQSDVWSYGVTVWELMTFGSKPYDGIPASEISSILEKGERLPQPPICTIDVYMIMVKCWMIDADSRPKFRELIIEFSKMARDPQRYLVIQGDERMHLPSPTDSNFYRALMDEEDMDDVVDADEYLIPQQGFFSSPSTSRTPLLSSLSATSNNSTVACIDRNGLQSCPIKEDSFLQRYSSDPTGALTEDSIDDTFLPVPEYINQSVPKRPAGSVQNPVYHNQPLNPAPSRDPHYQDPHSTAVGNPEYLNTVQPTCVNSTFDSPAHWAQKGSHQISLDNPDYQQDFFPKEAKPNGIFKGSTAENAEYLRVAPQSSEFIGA
EGFR L858R/C797S, sequence (P00533 25-1210 C797S/L858R): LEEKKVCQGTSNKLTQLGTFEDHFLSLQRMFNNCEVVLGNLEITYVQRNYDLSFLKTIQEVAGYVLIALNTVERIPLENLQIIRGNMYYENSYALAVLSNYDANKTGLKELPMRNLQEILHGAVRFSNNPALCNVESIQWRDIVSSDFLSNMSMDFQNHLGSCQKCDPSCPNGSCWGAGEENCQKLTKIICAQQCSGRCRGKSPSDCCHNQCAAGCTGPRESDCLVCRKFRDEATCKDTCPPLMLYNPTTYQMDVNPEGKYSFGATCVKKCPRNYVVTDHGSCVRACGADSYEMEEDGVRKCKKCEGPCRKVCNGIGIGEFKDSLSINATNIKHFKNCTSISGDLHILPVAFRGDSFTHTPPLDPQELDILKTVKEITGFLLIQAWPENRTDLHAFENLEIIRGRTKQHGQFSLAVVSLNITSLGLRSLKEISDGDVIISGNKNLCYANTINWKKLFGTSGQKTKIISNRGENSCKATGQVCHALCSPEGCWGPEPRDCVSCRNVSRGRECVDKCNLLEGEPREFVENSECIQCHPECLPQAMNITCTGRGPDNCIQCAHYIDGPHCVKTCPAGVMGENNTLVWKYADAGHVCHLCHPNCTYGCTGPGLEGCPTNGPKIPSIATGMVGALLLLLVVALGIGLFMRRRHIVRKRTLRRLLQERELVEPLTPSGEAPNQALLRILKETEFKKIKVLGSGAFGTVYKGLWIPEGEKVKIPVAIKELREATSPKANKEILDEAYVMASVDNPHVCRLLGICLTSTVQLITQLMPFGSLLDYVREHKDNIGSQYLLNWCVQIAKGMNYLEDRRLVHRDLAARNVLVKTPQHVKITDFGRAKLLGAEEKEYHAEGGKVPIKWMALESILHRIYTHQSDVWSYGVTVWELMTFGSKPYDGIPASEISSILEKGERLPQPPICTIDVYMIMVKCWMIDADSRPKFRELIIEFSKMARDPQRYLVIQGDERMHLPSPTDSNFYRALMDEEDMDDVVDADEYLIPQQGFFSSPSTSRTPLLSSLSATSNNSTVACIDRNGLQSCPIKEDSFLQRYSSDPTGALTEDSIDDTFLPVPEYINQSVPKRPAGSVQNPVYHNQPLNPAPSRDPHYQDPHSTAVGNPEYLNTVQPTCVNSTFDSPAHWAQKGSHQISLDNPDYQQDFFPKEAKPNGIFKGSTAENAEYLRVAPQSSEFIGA

| IC50 [1, 6] [nM] | IC50 [1, 7] [nM] | IC50 [2, 8] [nM] | IC50 [2, 9] [nM] | IC50 [3, 10] [nM] | IC50 [3, 11] [nM] | IC50 [4, 12] [nM] | IC50 [4, 13] [nM] | IC50 [5, 14] [nM] | IC50 ([5]; IC50 WT (nM), 100 μM ATP) [nM] | SMILES |
| --- | --- | --- | --- | --- | --- | --- | --- | --- | --- | --- |
| 0.1 | 0.5 | 0.6 | 0.7 | 0.6 | 0.6 | 0.2 | 0.6 | 0.6 | 111 | CN1CCN(Cc2ccc(C#Cc3cnc(Nc4ccnc(-c5cnn(S(=O)(=O)C6CC6)c5)n4)cc3N3CCC(C)(CO)CC3)cn2)CC1 [Example 279, (1-(2-((2-(1-(Cyclopropylsulfonyl)-1H-pyrazol-4-yl)pyrimidin-4-yl)amino)-5-((6-((4-methylpiperazin-1-yl)methyl)pyridin-3-yl)ethynyl)pyridin-4-yl)-4-methylpiperidin-4-yl)methanol] |
| 0.4 | 0.6 | 0.5 | 0.3 | 0.6 | 6.3 | 0.3 | 0.5 | 3.5 | > 10000 | CC1(O)CCN(c2cc(Nc3ccnc(-c4cnn(S(=O)(=O)C5CC5)c4)n3)ncc2C#Cc2cccnc2)CC1 [Example 280, 1-(2-((2-(1-(Cyclopropylsulfonyl)-1H-pyrazol-4-yl)pyrimidin-4-yl)amino)-5-(pyridin-3-ylethynyl)pyridin-4-yl)-4-methylpiperidin-4-ol] |
| – | 22 | 10.2 | 82.1 | 6.3 | 287 | 17 | 88.5 | 192 | > 10000 | COC1(C)CCN(c2cc(Nc3ccnc(-c4cnn(S(=O)(=O)C5CC5)c4)n3)ncc2C#Cc2cccnc2)CC1 [Example 281, 2-(1-(Cyclopropylsulfonyl)-1H-pyrazol-4-yl)-N-(4-(4-methoxy-4-methylpiperidin-1-yl)-5-(pyridin-3-ylethynyl)pyridin-2-yl)pyrimidin-4-amine] |
| – | 7.1 | 5.5 | 23.8 | 4.2 | 39.2 | 8.3 | 28.6 | 50.7 | > 10000 | O=S(=O)(C1CC1)n1cc(-c2nccc(Nc3cc(N4CCC5(CCCO5)CC4)c(C#Cc4cccnc4)cn3)n2)cn1 [Example 282, 2-(1-(Cyclopropylsulfonyl)-1H-pyrazol-4-yl)-N-(5-(pyridin-3-ylethynyl)-4-(1-oxa-8-azaspiro[4.5]decan-8-yl)pyridin-2-yl)pyrimidin-4-amine] |
| – | 3 | 2 | 9.5 | 1.9 | 11.2 | 3.1 | 7.9 | 16.2 | > 10000 | O=S(=O)(C1CC1)n1cc(-c2nccc(Nc3cc(N4CCC5(CCO5)CC4)c(C#Cc4cccnc4)cn3)n2)cn1 [Example 283, 2-(1-(Cyclopropylsulfonyl)-1H-pyrazol-4-yl)-N-(5-(pyridin-3-ylethynyl)-4-(1-oxa-7-azaspiro[3.5]nonan-7-yl)pyridin-2-yl)pyrimidin-4-amine] |
| – | 1.7 | 1.1 | 4.4 | 1.7 | 15.9 | 2.8 | 6.8 | 12.6 | 7270 | CC(C)(O)CC#Cc1cnc(Nc2ccnc(-c3cnn(S(=O)(=O)C4CC4)c3)n2)cc1N1CCC(C)(CO)CC1 [Example 284, 5-(6-((2-(1-(Cyclopropylsulfonyl)-1H-pyrazol-4-yl)pyrimidin-4-yl)amino)-4-(4-(hydroxymethyl)-4-methylpiperidin-1-yl)pyridin-3-yl)-2-methylpent-4-yn-2-ol] |
| 0.4 | 0.6 | 0.8 | 1 | 0.1 | 1.3 | 0.4 | 1.1 | 2.5 | 1250 | CC1(CO)CCN(c2cc(Nc3ccnc(-c4cnn(S(=O)(=O)C5CC5)c4)n3)ncc2C#CCCN2CCOCC2)CC1 [Example 285, (1-(2-((2-(1-(Cyclopropylsulfonyl)-1H-pyrazol-4-yl)pyrimidin-4-yl)amino)-5-(4-morpholinobut-1-yn-1-yl)pyridin-4-yl)-4-methylpiperidin-4-yl)methanol] |
| – | 0.4 | – | 0.1 | – | 13.5 | – | 2.2 | – | 4300 | CC1(CO)CCN(c2cc(Nc3ccnc(-c4cnn(S(=O)(=O)C5CC5)c4)n3)ncc2C#CCC2(O)COC2)CC1 [Example 286, 3-(3-(6-((2-(1-(Cyclopropylsulfonyl)-1H-pyrazol-4-yl)pyrimidin-4-yl)amino)-4-(4-(hydroxymethyl)-4-methylpiperidin-1-yl)pyridin-3-yl)prop-2-yn-1-yl)oxetan-3-ol] |
| – | 0.3 | – | 0.1 | – | 8.9 | – | 1.6 | – | 3190 | CC(O)CC#Cc1cnc(Nc2ccnc(-c3cnn(S(=O)(=O)C4CC4)c3)n2)cc1N1CCC(C)(CO)CC1 (stereo not shown) [Example 287, 5-(6-((2-(1-(Cyclopropylsulfonyl)-1H-pyrazol-4-yl)pyrimidin-4-yl)amino)-4-(4-(hydroxymethyl)-4-methylpiperidin-1-yl)pyridin-3-yl)pent-4-yn-2-ol] |
| – | 0.2 | – | 0.2 | – | 21.6 | – | 3.6 | – | 7820 | CC1(CO)CCN(c2cc(Nc3ccnc(-c4cnn(S(=O)(=O)C5CC5)c4)n3)ncc2C#CCNC(=O)C(F)(F)F)CC1 [Example 288, N-(3-(6-((2-(1-(Cyclopropylsulfonyl)-1H-pyrazol-4-yl)pyrimidin-4-yl)amino)-4-(4-(hydroxymethyl)-4-methylpiperidin-1-yl)pyridin-3-yl)prop-2-yn-1-yl)-2,2,2-trifluoroacetamide] |
| – | 0.9 | – | 0.2 | – | 23.1 | – | 3 | – | 8440 | CC1(CO)CCN(c2cc(Nc3ccnc(-c4cnn(S(=O)(=O)C5CC5)c4)n3)ncc2C#CCN2CCS(=O)(=O)CC2)CC1 [Example 289, 4-(3-(6-((2-(1-(Cyclopropylsulfonyl)-1H-pyrazol-4-yl)pyrimidin-4-yl)amino)-4-(4-(hydroxymethyl)-4-methylpiperidin-1-yl)pyridin-3-yl)prop-2-yn-1-yl)thiomorpholine 1,1-dioxide] |
| – | 8.6 | – | 5.7 | – | > 10000 | – | 26.2 | – | > 10000 | CC1(CO)CCN(c2cc(Nc3ccnc(-c4cnn(S(=O)(=O)C5CC5)c4)n3)ncc2C#Cc2cc(C(F)(F)F)n[nH]2)CC1 [Example 290, (1-(2-((2-(1-(Cyclopropylsulfonyl)-1H-pyrazol-4-yl)pyrimidin-4-yl)amino)-5-((3-(trifluoromethyl)-1H-pyrazol-5-yl)ethynyl)pyridin-4-yl)-4-methylpiperidin-4-yl)methanol] |
| 3.6 | 14.9 | 4.5 | 7.4 | 36.7 | 383 | 8.9 | 22.5 | 615 | > 10000 | CC1(CO)CCN(c2cc(Nc3ccnc(-c4cnn(S(=O)(=O)C5CC5)c4)n3)ncc2C#Cc2nc(C(F)(F)F)cs2)CC1 [Example 291, (1-(2-((2-(1-(Cyclopropylsulfonyl)-1H-pyrazol-4-yl)pyrimidin-4-yl)amino)-5-((4-(trifluoromethyl)thiazol-2-yl)ethynyl)pyridin-4-yl)-4-methylpiperidin-4-yl)methanol] |
| 2.4 | 4.2 | 4.9 | 2.2 | 38.7 | 146 | 12.2 | 10.4 | 101 | > 10000 | CC1(CO)CCN(c2cc(Nc3ccnc(-c4cnn(S(=O)(=O)C5CC5)c4)n3)ncc2C#Cc2cnc(C(F)(F)F)s2)CC1 [Example 292, (1-(2-((2-(1-(Cyclopropylsulfonyl)-1H-pyrazol-4-yl)pyrimidin-4-yl)amino)-5-((2-(trifluoromethyl)thiazol-5-yl)ethynyl)pyridin-4-yl)-4-methylpiperidin-4-yl)methanol] |
| 0.03 | 1.3 | 0.1 | 0.4 | 4.2 | 34.1 | 2.3 | 6.5 | 8.6 | > 10000 | CN(C)CC1(F)CCN(c2cc(Nc3ccnc(-c4cnn(S(=O)(=O)C5CC5)c4)n3)ncc2C#Cc2cnn(C)c2)CC1 [Example 293, 2-(1-(Cyclopropylsulfonyl)-1H-pyrazol-4-yl)-N-(4-(4-((dimethylamino)methyl)-4-fluoropiperidin-1-yl)-5-((1-methyl-1H-pyrazol-4-yl)ethynyl)pyridin-2-yl)pyrimidin-4-amine formate] |
